Experimental data published in US6569903B2, “Ophthalmic compositions” (Rohto Pharmaceutical Co., Ltd., priority 1999, dated 2003).
Counter-ions that a name gives are not always drawn.

Key:
[1] = test system: Japanese albino strain male rabbits; assay: Tear protein secretion promoting action of eye drops (Test Example 2); assay type: in vivo, rabbit; settings: 0.1 w/v % eye drops, 50 μl instilled into one eye, vs basal concentration
Procedure: Using Japanese albino strain male rabbits, eye drops containing adrenergic β receptor agonists were examined for their actions to promote the tear protein secretion.
Prior to use, each adrenergic β receptor agonist was dissolved in a phosphate buffer solution to prepare 0.1 w/v % solution, and adjusted to the pH ranging 6.0 to 7.5. Compounds and compositions of eye drops used in this experiment are shown below using the phosphate buffer solution as control.
Six rabbits (12 weeks old, weighing 2.0 to 2.5 kg) were used in each group. A test solution (50 μl) was instilled into one eye of the rabbit, and protein concentrations in tears were measured for 5 minutes from 15 to 10 min prior to the instillation of the test solution, for 5 minutes from 5 to 10 min and for 5 minutes from 20 to 25 min after the instillation, three times in total, using the following method. A local anesthetic, 0.4 w/v % oxybuprocaine hydrochloride solution (Santen Pharmaceutical) (50 μl) was instilled into one eye of the rabbit, 5 min later the remaining eye drops and tears were once soaked up using a water absorbing paper, and then a previously weighed filter paper (5×35 mm) was inserted in the lower eyelid area. Five minutes later, the filter paper was recovered, weighed and the increment in weight was taken as the amount of secreted tears. Immediately after measuring the amount of secreted tears, the filter paper thus recovered was placed in a 1.5-ml test tube, 1 ml of the phosphate buffer solution (pH 7.4) was added thereto, and the test tube was stirred for 30 s. After the removal of the filter paper followed by the centrifugation of the solution at 3,000 rpm for 5 min, a stain reagent of Bio-Rad protein assay kit was added to the supernatant to measure the amount of protein and calculate the total amount of protein in the filter paper. From the total amount of protein and that of secreted tears, the protein concentration in tears was calculated.
With the protein concentration in tears prior to the instillation of a test solution taken as a basal protein concentration, ratios of increases in respective protein concentrations relative to the basal protein concentration were used as the rate of increase in protein concentration in tears (%)

[2] = test system: Japanese albino strain male rabbits; assay: Tear secretion promoting action of eye drops (Test Example 1); assay type: in vivo, rabbit; settings: 0.1 w/v % eye drops, 50 μl instilled into one eye, vs basal secretion amount
Procedure: Using Japanese albino strain male rabbits, eye drops containing adrenergic β receptor agonists were examined for their tear secretion promoting actions.
Prior to use, each adrenergic β receptor agonist was dissolved in a phosphate buffer solution to prepare a 0.1 w/v % solution, which was adjusted to the pH ranging 6.0 to 7.5. Compounds used in this experiment are shown below. The phosphate buffer solution served as control.
Six rabbits (12 weeks old, weighing 2.0 to 2.5 kg) were used in each group. A test solution (50 μl) was instilled into one eye of the rabbit, and amounts of tears secreted were measured for 5 minutes from 15 to 10 min prior to the instillation of the test solution, for 5 minutes from 5 to 10 min and for 5 minutes from 20 to 25 min after the instillation, three times in total, by the following method. A local anesthetic, 0.4 w/v % oxybuprocaine hydrochloride solution (Santen Pharmaceutical) (50 μl) was instilled into one eye of the rabbit, 5 min later the remaining eye drops and tears were once soaked up using a water absorbing paper, and then a previously weighed filter paper (5×35 mm) was inserted in the lower eyelid area. Five minutes later, the filter paper was recovered, weighed and the increment in weight was taken as the amount of secreted tears. With the amount of secreted tears prior to the instillation of a test solution taken as a basal secretion amount, ratios of increases in the amount of secreted tears to the basal secretion amount were used as the rate of increase in the tear secretion (%).

[3] = test system: Japanese albino strain male rabbits; assay: Tear secretion after systemic (ear vein) administration (Test Example 3); assay type: in vivo, rabbit; settings: for Rate of increase in tear secretion (%): 50 μg/rabbit into the ear vein
Procedure: (§1) Using Japanese albino strain male rabbits, injections containing selective adrenergic β2 receptor agonists were examined for their actions to promote the tear secretion and the protein secretion in tears.
(§2) Prior to use, clenbuterol hydrochloride was dissolved in a physiological saline (concentration 50 μg/ml), and adjusted to the pH in the range 6.0 to 7.5. The physiological saline was used as control.
(§3) Six rabbits (11 to 12 weeks old, weighing 2.4 to 2.6 kg) were used in each group. The test solution (50 μg/rabbit) was administered into the ear vein, and amounts of tears secreted were measured 15 to 10 min prior to the administration of the test solution, 5 to 10 min, 20 to 25 min, 40 to 45 min, 60 to 65 min and 120 to 125 min after the administration, six times in total, by the following method. A local anesthetic, 0.4 w/v % oxybuprocaine hydrochloride solution (Santen Pharmaceutical) (50 μl) was instilled into one eye of a rabbit, 5 min later the remaining eye drops and tears were once soaked up using a water absorbing paper, and then a previously weighed filter paper (5×35 mm) was inserted in the lower eyelid area. Five minutes later, the filter paper was recovered, weighed and the increment in weight was taken as the amount of secreted tears. After measuring the amount of secreted tears, the filter paper thus recovered was placed in a 1.5-ml test tube, 1 ml of the phosphate buffer solution (pH 7.4) was added thereto, and the test tube was vortexed for 30 s. After the removal of the filter paper, followed by the centrifugation at 3,000 rpm for 5 min, a stain reagent of Bio-Rad protein assay kit was added to the supernatant to measure the amount of protein and calculate a total amount of protein in the filter paper. From the total amount of protein and that of secreted tears, the protein concentration in tears was calculated. With the amount of secreted tears prior to the administration of a test solution taken as the basal secretion amount, ratios of increases in the secreted tears to the basal secretion amount were used as the rate of increase in the tear secretion (%). In addition, with the protein concentration in tears prior to the administration of a test solution taken as the basal protein concentration, ratios of increases in respective protein concentrations relative to the basal protein concentration were used as the rate of increase in protein concentration in tears (%).

[4] = test system: Japanese albino strain male rabbits; assay: Protein concentration in tears after systemic (ear vein) administration (Test Example 3); assay type: in vivo, rabbit; settings: for Rate of increase in protein concentration in tears (%): 50 μg/rabbit into the ear vein
Procedure: as §1, §2, §3

β2 adrenergic receptor = biological target: T1, β2 adrenergic receptor (Cavia porcellus, UniProt Q8K4Z4); settings: cited from earlier work
T1 construct: a relaxation of smooth muscle (EC50) in an excised trachea or uterus; from tissue; host or cells: excised trachea (tracheal smooth muscle)
T1 sequence (Q8K4Z4 whole entry): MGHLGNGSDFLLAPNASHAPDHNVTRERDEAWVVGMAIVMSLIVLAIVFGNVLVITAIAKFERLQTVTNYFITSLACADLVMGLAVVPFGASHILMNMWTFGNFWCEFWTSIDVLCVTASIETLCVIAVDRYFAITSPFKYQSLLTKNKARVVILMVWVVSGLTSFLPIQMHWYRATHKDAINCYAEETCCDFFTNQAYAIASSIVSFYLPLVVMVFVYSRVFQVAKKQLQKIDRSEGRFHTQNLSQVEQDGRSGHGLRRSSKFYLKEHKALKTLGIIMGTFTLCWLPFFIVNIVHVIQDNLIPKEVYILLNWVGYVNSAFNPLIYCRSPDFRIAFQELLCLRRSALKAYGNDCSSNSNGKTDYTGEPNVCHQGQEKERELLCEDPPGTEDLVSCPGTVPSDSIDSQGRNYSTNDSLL

[5] = for 5 minutes from 5 to 10 min after instillation
[6] = for 5 minutes from 20 to 25 min after instillation
[7] = 120-125 min after administration
[8] = intravenous administration, result in words

Structure (SMILES): CC(C)(C)NCC(O)c1cc(Cl)c(N)c(Cl)c1 (stereo not drawn) [Clenbuterol hydrochloride, clenbuterol hydrochloride]
- Rate of increase in tear protein concentration [1, 5]: 16%
- Rate of increase in tear protein concentration [1, 6]: 53%
- Rate of increase in tear secretion [2, 5]: 36%
- Rate of increase in tear secretion [2, 6]: 29%
- Rate of increase in tear secretion (%) ([3]; 5-10 min after administration): 155%
- Rate of increase in tear secretion (%) ([3]; 20-25 min after administration): 146%
- Rate of increase in tear secretion (%) ([3]; 40-45 min after administration): 133%
- Rate of increase in tear secretion (%) ([3]; 60-65 min after administration): 68%
- Rate of increase in tear secretion (%) [3, 7]: 58%
- Amount of tear secretion [3, 8]: significant increases
- Rate of increase in protein concentration in tears (%) ([4]; 5-10 min after administration): 139%
- Rate of increase in protein concentration in tears (%) ([4]; 20-25 min after administration): 148%
- Rate of increase in protein concentration in tears (%) ([4]; 40-45 min after administration): 179%
- Rate of increase in protein concentration in tears (%) ([4]; 60-65 min after administration): 188%
- Rate of increase in protein concentration in tears (%) [4, 7]: 171%
- Protein concentration in tears [4, 8]: significant increases
- Relative specificity to the tracheal smooth muscle, higher than that of isoproterenol (β2 adrenergic receptor): about 7000 times

Structure (SMILES): CC(CCc1ccc(O)cc1)NCCc1ccc(O)c(O)c1 (stereo not drawn) [Dobutamine, dobutamine hydrochloride]
- Rate of increase in tear protein concentration [1, 5]: 9%
- Rate of increase in tear protein concentration [1, 6]: −19%
- Rate of increase in tear secretion [2, 5]: 8%
- Rate of increase in tear secretion [2, 6]: −29%

Structure (SMILES): CC(Cc1ccc(O)cc1)NCC(O)c1cc(O)cc(O)c1 (stereo not drawn) [Fenoterol hydrobromide, fenoterol hydrobromide]
- Rate of increase in tear protein concentration [1, 5]: 16%
- Rate of increase in tear protein concentration [1, 6]: 43%
- Rate of increase in tear secretion [2, 5]: 144%
- Rate of increase in tear secretion [2, 6]: 49%
- Relative specificity to the tracheal smooth muscle, higher than that of isoproterenol (β2 adrenergic receptor): about 20 times

Structure (SMILES): CCC(NC(C)C)C(O)c1ccc(O)c2[nH]c(=O)ccc12 (stereo not drawn) [Procaterol hydrochloride, procaterol hydrochloride]
- Rate of increase in tear protein concentration [1, 5]: 76%
- Rate of increase in tear protein concentration [1, 6]: 109%
- Rate of increase in tear secretion [2, 5]: 118%
- Rate of increase in tear secretion [2, 6]: 43%
- Relative specificity to the tracheal smooth muscle, higher than that of isoproterenol (β2 adrenergic receptor): about 2000 times

Structure (SMILES): CC(C)(C)NCC(O)c1ccc(O)c(CO)n1 (stereo not drawn) [pirbuterol]
- Relative specificity to the tracheal smooth muscle, higher than that of isoproterenol (β2 adrenergic receptor): about 260 times

Structure (SMILES): CC(C)(C)NCC(O)c1ccc(O)c(CO)c1 (stereo not drawn) [salbutamol]
- Relative specificity to the tracheal smooth muscle, higher than that of isoproterenol (β2 adrenergic receptor): about 30 times
